Columns and labels:
[1] = system: rat model of acute respiratory distress syndrome; test: arterial oxygen saturation in rat model of acute respiratory distress syndrome; assay type: in vivo; details: ARDS rats; melatonin 50 mg/kg i.p. at 6th and 24th hour; mitochondria 1500 μg per rat i.v. at 6th hour
Description: (§1) A total of forty (40) specific pathogen free (SPF) adult male SD rats, each weighing 350-400 g (Charles River Technology, BioLASCO Biotechnology Co., Ltd., Taiwan) were used in the examples. The SD rats were randomly divided into 5 groups: the first group was the normal control group; the second group was the rat model of acute respiratory distress syndrome; the third group was the rat model of acute respiratory distress syndrome intraperitoneally injected with melatonin, with each dose of 50 mg per kilogram, at the 6th and the 24th hour after breathing pure oxygen; the fourth group was the rat model of acute respiratory distress syndrome intravenously injected mitochondria, with a dose of 1500 μg per rat, at the 6th hour after breathing pure oxygen; the fifth group was the rat model of acute respiratory distress syndrome administered melatonin and mitochondria in the same manners, frequency, and doses as those of the third group and the fourth group, respectively.
Rats in each group in Example 5 were anesthetized. Arterial blood was taken from the carotid arteries of rats in each group, and the oxygen saturation of the blood samples was analyzed.
The rat model of acute respiratory distress syndrome was divided into two groups. One group was given 750 μg of mitochondria per rat, and the other group was given 1500 μg of mitochondria per rat. […]

[2] = system: rat model of acute respiratory distress syndrome; test: immunostaining of lung sections for F4/80, γ-H2AX, Cx43, heme oxygenase-1; assay type: in vivo; details: positive cells per HPF 400×; ARDS rats
Description: as §1
The paraffin sections of the lung tissue of each group were rehydrated with 3% hydrogen peroxide for 30 minutes, followed by the addition of a high-performance Immuno-Block reagent (BioSB) at room temperature for 30 minutes. The sections were then treated with the specific primary antibody of the following proteins, respectively: F4/80 (1:100, Abcam), γ-H2AX (1:500, Abcam), heme oxygenase-1 (HO-1; 1:2000, Abcam), and Cx43. Immunohistochemical staining was performed on the sections of the lung tissue of each group to observe the expression of F4/80, γ-H2AX, heme oxygenase-1, and Cx43 in cells. In addition, the expression of the proteins mentioned above in the lung tissue sections of each group was quantified, and the results are shown in FIG. 20 to FIG. 23. The red fluorescence represents the exogenous mitochondria labeled by mito-tracker, and the green fluorescent represents the mitochondria within the lungs. […]

[3] = system: rat model of acute respiratory distress syndrome; test: lung sections: immunofluorescence and transmission electron microscopy of mitochondria; assay type: in vivo; details: compared with second group (ARDS)
Description: as §1
The left lungs of rats in each group were inflated with constant airway pressure (15-20 mmHg) and embedded with OCT (Tissue-Tek) for immunohistochemical staining. The right lungs of rats in each group were fixed with 4% paraformaldehyde and 0.1% glutaraldehyde phosphate buffer solution, then embedded in paraffin, and stained with hematoxylin and eosin. […]

[4] = system: rat model of acute respiratory distress syndrome; test: MPO+, CD40+, CD11b/c+ cells in BAL fluid by flow cytometry; assay type: in vivo; details: ARDS rats; doses of Example 5
Description: as §1
(§2) BAL fluid was obtained from rats in each group by bronchoalveolar lavage (BAL). SDS-PAGE and Coomassie Blue staining were used to detect the concentration of albumin in the BAL fluid of each group, and the results are shown in FIG. 11. Furthermore, the number of MPO+, CD40+, and CD11b/c+ cells in the BAL fluid of each group was calculated by flow cytometry.

[5] = system: rat model of acute respiratory distress syndrome; test: right ventricular systolic pressure in rat model of acute respiratory distress syndrome; assay type: in vivo; details: ARDS rats; melatonin 50 mg/kg i.p. at 6th and 24th hour; mitochondria 1500 μg per rat i.v. at 6th hour
Description: (§3) A total of forty (40) specific pathogen free (SPF) adult male SD rats, each weighing 350-400 g (Charles River Technology, BioLASCO Biotechnology Co., Ltd., Taiwan) were used in the examples. […]
Then, rats in each group were provided air with positive pressure ventilation (180 ml per minute) using small animal ventilators (SAR-830/A, CWE, Inc., USA) and intubation. […] Signals of right ventricular systolic pressure were measured with a pressure transducer (UFI, model 1050, CA, USA) and transmitted to bridge amplifiers (ML866 PowerLab 4/30 Data Acquisition Systems. ADlnstruments Pty Ltd., Castle Hill, NSW, Australia) to obtain the right ventricular systolic pressure of rats in each group as a reference for pulmonary hypertension. In addition, femoral artery systolic blood pressure of rats in each group was measured. The right ventricular systolic pressure and the femoral artery systolic blood pressure were analyzed by software (Labchart, ADlnstrument). […]

[6] = system: rat model of acute respiratory distress syndrome; test: western blotting / Oxyblot of lung parenchyma protein extracts; assay type: in vivo
Excerpt: (§4) The term “protein oxidation detection kit” disclosed in the present invention refers to methods for detecting protein oxidation in cells. For example, the Oxyblot Oxidized Protein Detection Kit S7150 (Chemicon) used in the examples of the present invention detects oxidized proteins by labeling oxidized proteins in a sample with 2,4-dinitrophenylhydrazine (DNPH), separating proteins in the sample with 12% SDS polyacrylamide gel electrophoresis, transferring the separated proteins onto a transfer membrane, such as a nitrocellulose membrane, immersing the transfer membrane in buffer containing anti-DNP primary antibody (1:150) for about 2 hours, then immersing the transfer membrane in buffer containing secondary antibody (1:300) at room temperature for about an hour, and then observing expression of oxidized proteins in the sample.
as §1
The protein extracts of the left lungs of rats in each group were prepared. The same amount (10 to 30 μg) of protein extracts of rats in each group was detected by western blotting and Oxyblot Oxidized Protein Detection Kit S7150, Chemicon, respectively. The results were observed by enhanced chemiluminescence (ECL, Amersham Biosciences), and the performance of each protein was quantified by software (Labwork software, UVP).
Specifically, the procedure and conditions of western blotting were as follows: Proteins were separated by SDS gel electrophoresis with a gradient of 8-10% polyacrylamide solution. The blocking agent used was a T-TBS solution containing 5% skimmed milk powder and 0.05% Tween. Primary antibodies were against the following proteins respectively: NOX-1 (1:1500, Sigma), NOX-2 (1:750, Sigma), NOX-4 (1:1000, Abcam), or interacted with polyclonal antibodies that were against the following proteins: tumor necrosis factor α (1:1000, Cell Signaling), nuclear factor κB (1:250, Abcam), matrix metalloproteinase 9 (1:3000, Abcam), transforming growth factor β (1:1000, Abcam), Smad3 (1:500, Cell Signaling), bone morphogenetic protein-2 (1:100, Abcam), Smad 1/5 (1:500, Cell Signaling), GR (1:1000, Abcam), GPx (1:1000, Abcam), Cytochrome C (1:2000, BD), NQO 1 (NAD(P)H: quinone oxidoreductase 1; 1:1000, Abcam), Heme oxygenase-1 (1:250, Abcam), caspases 3 (1:1000, Cell Signaling), and PARP (poly (ADP-ribose) polymerase; 1:1000, Cell Signaling). Secondary antibodies conjugated to HRP enzymatic fluorescence are goat antibody against mouse IgG, goat antibody against rat IgG, or goat antibody against rabbit IgG.

[7] = system: rat model of acute respiratory distress syndrome; test: lung histology (hematoxylin and eosin): alveolar sacs and crowded area; assay type: in vivo; details: per high power field 100×; ARDS rats; doses of Example 5
Excerpt: as §3
The integral of the crowded area in the lung tissue of rats in each group was further calculated by the following criteria: 0 represents no overlap; 1 represents less than 15% of crowded area in each of the high magnification fields; 2 represents 15-25% of crowded area in each of the high magnification fields; 3 represents 25-50% of crowded area in each of the high magnification fields; 4 represents 50-75% of crowded area in each of the high magnification fields; 5 represents 75-100% of crowded area in each of the high magnification fields. […]

[8] = system: rat model of acute respiratory distress syndrome; test: albumin in BAL fluid (SDS-PAGE, Coomassie Blue); assay type: in vivo; details: ARDS rats; doses of Example 5
Description: as §1, §2

[9] = system: human umbilical vein endothelial cells; test: intracellular protein oxidation (Oxyblot) under menadione oxidative stress; assay type: cell-based; details: after 0.5 hours and 6 hours of treatment; mitochondria after menadione vs menadione only; menadione vs untreated
Excerpt: as §4
Human umbilical vein endothelial cells were divided into three groups. The human umbilical vein endothelial cells of the first group remained untreated. […] Protein oxidation in each group was detected after 0.5 hours and 6 hours of treatment with a commercially available protein oxidation assay kit (Oxyblot Oxidized Protein Detection Kit S7150, Chemicon), and oxidative stress in cells of each group was further analyzed with a software (Labwork software, UVP).

SMILES: COc1ccc2[nH]cc(CCNC(C)=O)c2c1 [melatonin]
- oxygen saturation (group comparison) [1]: significantly higher than that of the fourth group
- expression of F4/80 in lung sections [2]: significantly lower than the fourth group
- expression of heme oxygenase-1 in lung sections [2]: significantly higher then the second group
- expression of γ-H2AX in lung sections [2]: significantly lower than the fourth group
- mitochondrial morphology in lung tissue (size, cristae; TEM) [3]: smaller, and there are cristae in the mitochondrial inner membranes
- number of inflammatory cells (MPO+, CD40+, CD11b/c+) in BAL fluid [4]: significantly lower than those in the second group
- right ventricular systolic pressure (group comparison) [5]: significantly reduced
- oxidative stress (oxidized proteins) ([6]; Oxyblot): significantly lower than that of the second and fourth groups
- expression level of GPx ([6]; western blot): significantly higher than those of the second and fourth groups
- expression level of GR ([6]; western blot): significantly higher than those of the second and fourth groups
- expression level of Heme oxygenase-1 ([6]; western blot): significantly higher than those of the second and fourth groups
- expression level of NOX-1 ([6]; western blot): significantly lower than those of the second and fourth groups
- expression level of NOX-2 ([6]; western blot): significantly lower than those of the second and fourth groups
- expression level of NOX-4 ([6]; western blot): significantly lower than those of the second and fourth groups
- expression level of NQO 1 ([6]; western blot): significantly higher than those of the second and fourth groups
- expression level of Smad3 ([6]; western blot): significantly lower than those of the second and fourth groups
- expression level of activated PARP ([6]; western blot): significantly lower than those of the second and fourth groups
- expression level of activated caspase-3 ([6]; western blot): significantly lower than those of the second and fourth groups
- expression level of cytochrome c (cytosol) ([6]; western blot): significantly lower than those of the second and fourth groups
- expression level of matrix metalloproteinase 9 ([6]; western blot): significantly lower than those of the second and fourth groups
- expression level of nuclear factor κB ([6]; western blot): significantly lower than those of the second and fourth groups
- expression level of transforming growth factor β ([6]; western blot): significantly lower than those of the second and fourth groups
- expression level of tumor necrosis factor α ([6]; western blot): significantly lower than those of the second and fourth groups
- number of alveolar sacs [7]: significantly higher than that in the second group
- albumin concentration in BAL fluid [8]: significantly lower than those in the second group

SMILES: CC1=CC(=O)c2ccccc2C1=O [menadione]
- protein oxidation in cells [9]: increased significantly

From patent US10420798B2, “Method for treating lung injury and/or diseases related to lung injury” (TAIWAN MITOCHONDRION APPLIED TECHNOLOGY CO., LTD, priority 2014, dated 2019)
